Laboratory results from patent US5326771A, “Piperidylmethyl-substituted chroman derivatives” (Bayer Aktiengesellschaft, priority 1991, dated 1994).
Where a name gives a salt, the structure may show the parent alone.

Tests used:
α-adrenergic = settings: in the form of its hydrochloride; Eur. J. Med. Chem. 22 (6), 539-544; cited from earlier work
5-HT1 receptor = assay: Affinity for the 5-HT1 receptor (receptor-bonding, 3H-serotonin, calf hippocampus membranes); format: binding; settings: calf hippocampus membrane preparations, 3H-serotonin as radioligand
Description: The high affinity of the compounds according to the invention for 5-hydroxytryptamine receptors of the subtype 1 is shown by way of example in Table [A]. The values stated are data which were determined from receptor-bonding studies using calf hippocampus membrane preparations. ^3 H-Serotonin was used as the radioactively labelled ligand for this purpose.

Dopamine D2 receptor = biological target: T1, Dopamine D2 receptor (Rattus norvegicus, UniProt P61169); assay: Dopamine D2 receptor test (3H-sulpiride bonding, rat striatum membranes); format: binding; settings: Ki calculated from IC50 of displacement curves
T1 construct: membranes from the striatum of the rat; from tissue; host or cells: rat striatum membranes
Description: This test is carried out in accordance with the following literature reference: Imafuku J. (1987), Brain Research 402; 331-338.
The bonding of the selective D2 receptor antagonist ^3 H-sulpiride to membranes from the striatum of the rat is measured here. Compounds which bond to dopamine D2 receptors inhibit the bonding of ^3 H-sulpiride as a function of the concentration. IC50 values are determined from the displacement curves, and the inhibition constants Ki are calculated from these.

5-HT1A receptor = biological target: T2, 5-HT1A receptor (Bos taurus, UniProt F6Q2H9); assay: Affinity for the 5-HT1A receptor (3H-ipsapirone bonding, calf hippocampus membranes); format: binding
T2 construct: 5-HT1A receptors in calf hippocampus membranes; from tissue; host or cells: calf hippocampus membranes
T2 sequence (F6Q2H9 1-422): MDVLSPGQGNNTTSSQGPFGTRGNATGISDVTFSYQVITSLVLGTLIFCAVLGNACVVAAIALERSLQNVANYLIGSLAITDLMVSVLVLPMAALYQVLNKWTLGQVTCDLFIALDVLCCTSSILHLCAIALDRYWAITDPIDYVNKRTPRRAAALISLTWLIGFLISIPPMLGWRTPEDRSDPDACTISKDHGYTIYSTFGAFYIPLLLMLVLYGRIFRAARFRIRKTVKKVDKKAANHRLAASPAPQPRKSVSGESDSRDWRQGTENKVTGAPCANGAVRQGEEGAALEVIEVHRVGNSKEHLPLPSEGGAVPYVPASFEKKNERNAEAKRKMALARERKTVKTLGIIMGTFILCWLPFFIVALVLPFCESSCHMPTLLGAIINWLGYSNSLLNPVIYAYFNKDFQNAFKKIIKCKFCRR
Description: [W. U. Dompert et al., Naunyn-Schmiedeberg's Arch. Pharmacol. (1985), 328, 467-470].
The bonding of ^3 H-ipsapirone to 5-HT1A receptors in calf hippocampus membranes is measured in this test.

T1 sequence (P61169 whole entry): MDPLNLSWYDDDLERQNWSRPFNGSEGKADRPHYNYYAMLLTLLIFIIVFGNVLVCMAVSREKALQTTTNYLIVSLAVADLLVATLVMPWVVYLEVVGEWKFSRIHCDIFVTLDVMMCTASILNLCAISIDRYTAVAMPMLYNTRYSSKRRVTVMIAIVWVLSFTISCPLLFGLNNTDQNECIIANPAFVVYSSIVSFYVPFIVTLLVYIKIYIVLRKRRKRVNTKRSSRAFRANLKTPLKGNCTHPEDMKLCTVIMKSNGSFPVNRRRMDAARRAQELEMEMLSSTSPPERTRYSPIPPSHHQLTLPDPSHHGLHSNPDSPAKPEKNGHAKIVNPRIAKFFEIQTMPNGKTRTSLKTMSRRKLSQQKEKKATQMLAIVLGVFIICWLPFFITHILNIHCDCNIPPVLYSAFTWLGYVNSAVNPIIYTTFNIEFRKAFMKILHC

c1ccc2c(c1)CCC(CN1CCCCC1)O2 (centres unmarked) [1-[(3,4-dihydro-2H-1-benzopyran-2-yl)methyl]piperidine]
α-adrenergic blocking action (α-adrenergic): having an α-adrenergic blocking action

COc1cccc2c1OC(CN1CCC(O)(c3ccc(Cl)cc3)CC1)CC2 (centres unmarked) [Example 1, 2-[4-(4-Chlorophenyl)-4-hydroxy-piperidin-1-yl]methyl-8-methoxy-chroman hydrochloride]
Ki (5-HT1 receptor): 22 nM

OC1(c2ccc(Cl)cc2)CCN(CC2CCc3ccccc3O2)CC1 (centres unmarked) [Example 4]
Ki (Dopamine D2 receptor): 2.5 nM | Ki (5-HT1 receptor): 76 nM

COc1cccc2c1OC(CN1CCC(c3ccccc3)(c3ccccc3)CC1)CC2 (centres unmarked) [Example 5]
Ki (5-HT1A receptor): 9.9 nM

OC1(c2ccc(Cl)c(C(F)(F)F)c2)CCN(CC2CCc3ccccc3O2)CC1 (centres unmarked) [Example 8]
Ki (Dopamine D2 receptor): 0.9 nM

COc1cccc2c1OC(CN1CCC(O)(c3cccc(C(F)(F)F)c3)CC1)CC2 (centres unmarked) [Example 9]
Ki (5-HT1A receptor): 6 nM

OC1(c2cccc(C(F)(F)F)c2)CCN(CC2CCc3ccccc3O2)CC1 (centres unmarked) [Example 10]
Ki (Dopamine D2 receptor): 2.3 nM
